According to PMC8694143 (Microbiology Spectrum, 2021):
Entries after “also recorded” stand apart in the source; their conditions may differ. One block for each compound: values may come before it. Residues, ends and D or L forms follow the SMILES beside them. No end group written: not given here. *: point of attachment. For = O=C*

Assays:
[1] = tested on: MRSA ATCC 33592; assay: MIC determination in broth; format: cell-based, Staphylococcus aureus; conditions: cation-adjusted MH broth, 37°C, 16 h
Outline: (§1)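 MIC read after unshaken incubation at 37°C of bacteria (∼10^5 CFU/mL, OD 5 × 10^−4) with twofold peptide dilutions in cation-adjusted MH broth.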

[2] = tested on: MRSA ATCC BAA-1683; assay: MIC determination in broth; format: cell-based, Staphylococcus aureus; conditions: cation-adjusted MH broth, 37°C, 16 h
Outline: as §1

[3] = tested on: MRSA ATCC BAA-2094; assay: MIC determination in broth; format: cell-based, Staphylococcus aureus; conditions: cation-adjusted MH broth, 37°C, 16 h
Outline: as §1

[4] = tested on: MRSA ATCC BAA-2313; assay: MIC determination in broth; format: cell-based, Staphylococcus aureus; conditions: cation-adjusted MH broth, 37°C, 16 h
Outline: as §1

[5] = tested on: MRSA ATCC BAA-41; assay: MIC determination in broth; format: cell-based, Staphylococcus aureus; conditions: cation-adjusted MH broth, 37°C, 16 h
Outline: as §1

[6] = tested on: MRSA ATCC BAA-42; assay: MIC determination in broth; format: cell-based, Staphylococcus aureus; conditions: cation-adjusted MH broth, 37°C, 16 h
Outline: as §1

[7] = tested on: MRSA ATCC BAA-44; assay: MIC determination in broth; format: cell-based, Staphylococcus aureus; conditions: cation-adjusted MH broth, 37°C, 16 h
Outline: as §1

[8] = tested on: S. aureus ATCC 29213; assay: MIC determination in broth; format: cell-based, Staphylococcus aureus; conditions: cation-adjusted MH broth, 37°C, 16 h
Outline: as §1

[9] = molecular target: SspA protease (Staphylococcus aureus, UniProt P0C1U8); assay: SspA protease treatment with HPLC/MS analysis; format: in vitro ADME; conditions: peptide 45 μL at 10 mg/mL + SspA 5 μL at 2 mg/mL, 100 mM HEPES pH 7.8, 37°C, 5 h
Method: (§2) SspA protease was resuspended at 2 mg/mL in 100 mM HEPES (pH 7.8). Peptide samples (45 μL at 10 mg/mL) were mixed with SspA (5 μL at 2 mg/mL) and incubated at 37°C for a total of 5 h. The antimicrobial activities of the reaction mixtures were assayed by spotting 5 μL (∼45 μg) of each on either M. luteus or S. aureus test organisms as described above. Additional samples were flash frozen in liquid nitrogen and stored at −80°C prior to high-pressure liquid chromatography-mass spectrometry (HPLC/MS) analysis.
HPLC/MS analyses were conducted to assess the proteolytic cleavage of STIPs by the SspA protease and catalogue peptides in the reaction mixtures. An Agilent Infinity II 1260 HPLC outfitted with a Phenomenex Lune C5 column (4.6 by 150 mm, 5 μm) was used to separate the peptide fragments using a binary solvent system consisting of solvent A (water, 0.05% formic acid) and solvent B (acetonitrile, 0.05% formic acid) operating at 0.7 mL/min. A 5-μL volume (∼4.5 μg) of each sample was injected at 10% solvent B, followed by a two-step gradient elution from 10% to 50% solvent B in 30 min, then 50% to 100% B in 10 min. The HPLC was coupled to an Advion CMS(L) single quadrupole mass detector through an electrospray ionization source, and ions were detected between 100 and 2,000 m/z. Low temperature and fragmentation settings were used: capillary temperature 135°C, capillary voltage 120 V, source voltage offset 20 V, source gas temperature 135°C, and electrospray ionization (ESI) voltage 3,500 V.

[10] = Circular dichroism spectroscopy; format: physicochemical; conditions: for α-Helical content (%): CD, 50% TFE (vol/vol), peptide 0.2 mg/mL, room temperature
Method: Peptides were dissolved in ultrapure water or 50% TFE (vol/vol) at a concentration of 0.2 mg/mL for spectroscopy. Spectra of samples in a 1 mm pathlength quartz cuvette were recorded from 180 to 260 nm at 0.5 nm steps using an Applied Photophysics Chirascan Plus CD spectrophotometer operating at room temperature.

[11] = tested on: SspA; assay: SspA protease in 100 mM HEPES (pH 7.8); conditions: Staphylococcus aureus (staphylococcal secreted protease), 37°C, up to 5 h
[12] = tested on: SspA; assay: SspA protease resuspended at 2 mg/mL in 100 mM HEPES (pH 7.8); conditions: 37°C, up to 5 h
[13] = tested on: M. luteus ATCC 4698; assay: MIC determination in broth; format: cell-based, Micrococcus luteus; conditions: cation-adjusted MH broth, ~10^5 CFU/mL, 30°C, 48 h
Method: M. luteus ATCC 4698, S. aureus ATCC 29213, a panel of 7 MRSA (ATCC MP-2) strains, which includes ATCC BAA-41, BAA-42, BAA-44, BAA-1683, BAA-2094, BAA-2313, and 33592, and a series of additional bacterial isolates from human and veterinary cases were used in this study (Table S6). Bacterial strains were routinely grown in lysogeny broth (LB: 10 g/L tryptone, 5 g/L yeast extract, 10 g/L NaCl) at 30°C (M. luteus) or 37°C (Staphylococcus spp.) prior to use in specific experiments described below.
The MICs were measured for bioactive peptides identified from the initial screen. Cation-adjusted Mueller-Hinton (MH) broth was used as the growth medium for MIC determination experiments. Bacterial cultures were diluted to an OD of 5 × 10^−4 (∼10^5 CFU/mL) in 200 μL MH broth mixed with peptides in a 2-fold dilution series arrayed in 96-well plates. Plates were incubated without shaking at 30 or 37°C depending on the organism.

[14] = tested on: S. aureus ATCC 29213; assay: Spot-on-lawn assay; format: cell-based, Staphylococcus aureus; conditions: 50 μg peptide (about 45 μg of SspA reaction mixture) spotted on inoculated soft agar, 37°C, 16 to 48 h
Method: Peptides (≥70% purity) were resuspended in sterile double distilled water (ddH2O) at a concentration of 10 mg/mL (gross weight), and M. luteus and S. aureus ATCC 29213 were used as indicator strains. To prepare test organisms, the optical density (OD) of overnight cultures was measured and the organisms were diluted to an initial OD of 0.05 (S. aureus) or 0.1 (M. luteus) in soft nutrient agar (0.4% wt/vol) at 50°C. Next, 3 mL of soft agar containing a test organism was overlaid on solid LB agar (1.5% wt/vol). A total of 50 μg of each peptide was spotted on the inoculated surface and plates were incubated for 16 to 48 h at 37 or 30°C.
as §2

[15] = tested on: S. aureus; assay: MIC of STIP3-1 alanine variants in liquid broth; format: cell-based, Staphylococcus aureus
Method: The MICs were measured for bioactive peptides identified from the initial screen. […] […] Plates were incubated without shaking at 30 or 37°C depending on the organism.

[16] = δ-toxins, highest conc. tested 200 μg/mL
[17] = STIP3 variants, highest conc. tested 100 μg/mL, ~10^5 CFU/mL, 2-fold dilution series

Compound: CC[C@H](C)[C@H](NC(=O)[C@H](Cc1c[nH]c2ccccc12)NC(=O)[C@H](CCCCN)NC(=O)[C@@H](NC(=O)[C@H](CC(C)C)NC(=O)CNC(=O)CNC(=O)[C@@H](NC(=O)[C@@H](NC(=O)[C@H](CCC(=O)O)NC(=O)[C@@H](NC(=O)[C@@H](NC(=O)[C@H](CC(=O)O)NC(=O)[C@H](CCCCN)NC(=O)[C@@H](NC(=O)[C@H](CCSC)NC=O)[C@@H](C)O)[C@@H](C)CC)C(C)C)[C@@H](C)O)C(C)C)C(C)C)C(=O)N[C@@H](CC(C)C)C(=O)N[C@@H](CC(=O)O)C(=O)N[C@H](C(=O)N[C@H](C(=O)N[C@@H](CCCCN)C(=O)N[C@@H](CCCCN)C(=O)N[C@@H](Cc1ccccc1)C(=O)N[C@@H](C)C(=O)O)C(C)C)[C@@H](C)O [δ-toxin] (For-MTKDIVETVGGLVKWILDTVKKFA-OH; C-terminus assumed)
MIC, S. aureus ATCC 33592 (SCCmec III) [1, 16]: > (no inhibition was observed at 100 μg/mL for the STIP3 variants or 200 μg/mL for the δ-toxins)
MIC, S. aureus ATCC BAA 1683 (SCCmec IV) [2, 16]: > (no inhibition was observed at 100 μg/mL for the STIP3 variants or 200 μg/mL for the δ-toxins)
MIC, S. aureus ATCC BAA 2094 (SCCmec V) [3, 16]: > (no inhibition was observed at 100 μg/mL for the STIP3 variants or 200 μg/mL for the δ-toxins)
MIC, S. aureus ATCC BAA 2313 (SCCmec XI) [4, 16]: > (no inhibition was observed at 100 μg/mL for the STIP3 variants or 200 μg/mL for the δ-toxins)
MIC, S. aureus ATCC BAA 41 (SCCmec II) [5, 16]: > (no inhibition was observed at 100 μg/mL for the STIP3 variants or 200 μg/mL for the δ-toxins)
MIC, S. aureus ATCC BAA 42 (SCCmec VI) [6, 16]: > (no inhibition was observed at 100 μg/mL for the STIP3 variants or 200 μg/mL for the δ-toxins)
MIC, S. aureus ATCC BAA 44 (SCCmec I) [7, 16]: > (no inhibition was observed at 100 μg/mL for the STIP3 variants or 200 μg/mL for the δ-toxins)
MIC, S. aureus ATCC 29213 [8, 16]: > (no inhibition was observed at 100 μg/mL for the STIP3 variants or 200 μg/mL for the δ-toxins)
Susceptibility to SspA cleavage [9]: no SspA cleavage was observed
α-Helical content (%) [10]: 88%
Secondary structure by CD ([10]; water and 50% trifluoroethanol (vol/vol), 0.2 mg/mL): α-helical in both solvents

fragment found [11]: IIGTIND; also recorded: LIKWIAD
cleaved bond [12]: D-L and D-T
fragment found [12]: KYKK and LIKWIADTVE
Compound: IIGTINDLIKWIADTVEKYKK

fragment found [11]: IISTIGDLIKWIID; also recorded: TVKKFKK
cleaved bond [12]: D-T
Compound: IISTIGDLIKWIIDTVKKFKK

cleaved bond [12]: E-T and E-F
Compound: IISTIVEFVKLIAETIAKFMK
fragment found [11]: IISTIVE; also recorded: FVKLIAETIAKFMK; also recorded: TIAKFMK

fragment found [11]: TVKKFA
cleaved bond [12]: D-T
Compound: IVETVGGLVKWILDTVKKFA
fragment found [12]: IVE and TVGGLVKWILDTVKKFA and TVGGLVKWILD

Compound: MTKDIVETVGGLVKWILDTVKKFA [δ-toxin (df), deformylated full-length S. auricularis δ-toxin, reference compound]
MIC, S. aureus ATCC 33592 (SCCmec III) [1, 16]: > (no inhibition was observed at 100 μg/mL for the STIP3 variants or 200 μg/mL for the δ-toxins)
MIC, S. aureus ATCC BAA 1683 (SCCmec IV) [2, 16]: > (no inhibition was observed at 100 μg/mL for the STIP3 variants or 200 μg/mL for the δ-toxins)
MIC, S. aureus ATCC BAA 2094 (SCCmec V) [3, 16]: > (no inhibition was observed at 100 μg/mL for the STIP3 variants or 200 μg/mL for the δ-toxins)
MIC, S. aureus ATCC BAA 2313 (SCCmec XI) [4, 16]: > (no inhibition was observed at 100 μg/mL for the STIP3 variants or 200 μg/mL for the δ-toxins)
MIC, S. aureus ATCC BAA 41 (SCCmec II) [5, 16]: > (no inhibition was observed at 100 μg/mL for the STIP3 variants or 200 μg/mL for the δ-toxins)
MIC, S. aureus ATCC BAA 42 (SCCmec VI) [6, 16]: > (no inhibition was observed at 100 μg/mL for the STIP3 variants or 200 μg/mL for the δ-toxins)
MIC, S. aureus ATCC BAA 44 (SCCmec I) [7, 16]: > (no inhibition was observed at 100 μg/mL for the STIP3 variants or 200 μg/mL for the δ-toxins)
MIC, S. aureus ATCC 29213 [8, 16]: > (no inhibition was observed at 100 μg/mL for the STIP3 variants or 200 μg/mL for the δ-toxins)
Susceptibility to SspA cleavage [9]: susceptible to SspA cleavage
α-Helical content (%) [10]: 87%

Compound: TVAGLVKWILDTVKKFA [G3A]
MIC, M. luteus [13]: 50 µg/mL
Inhibition of S. aureus growth, spot-on-lawn [14]: inhibition observed on an agar surface

Compound: TVGALVKWILDTVKKFA [G4A]
MIC, M. luteus [13]: 12.5 µg/mL
Inhibition of S. aureus growth, spot-on-lawn [14]: inhibition observed on an agar surface

Compound: TVGGLVKWILATVKKFA [STIP3-2]
MIC, S. aureus ATCC 33592 (SCCmec III) ([1]; Table S5, STIP3 variants, highest conc. tested 100 μg/mL, ~10^5 CFU/mL, 2-fold dilution series): 50 µg/mL
MIC, S. aureus ATCC BAA 1683 (SCCmec IV) [2, 17]: 50 µg/mL
MIC, S. aureus ATCC BAA 2094 (SCCmec V) [3, 17]: 50 µg/mL
MIC, S. aureus ATCC BAA 2313 (SCCmec XI) [4, 17]: 50 µg/mL
MIC, S. aureus ATCC BAA 41 (SCCmec II) [5, 17]: 100 µg/mL
MIC, S. aureus ATCC BAA 42 (SCCmec VI) [6, 17]: 50 µg/mL
MIC, S. aureus ATCC BAA 44 (SCCmec I) [7, 17]: 100 µg/mL
MIC, S. aureus ATCC 29213 [8, 17]: 100 µg/mL
MIC, M. luteus [13]: 3.13 µg/mL
MIC, S. aureus (alanine substituted STIP3-1, liquid broth) ([15]; Table S4, maximum concentration tested 200 μg/mL, strain not given): 100 µg/mL
Activity against S. aureus in nutrient broth ([15]; at 200 μg/mL): maintained activity

Compound: TVGGLVKWILDTVAKFA [K14A]
MIC, M. luteus [13]: 12.5 µg/mL
Inhibition of S. aureus growth, spot-on-lawn [14]: inhibition observed on an agar surface

Compound: TVGGLVKWILDTVKAFA [K15A]
MIC, M. luteus [13]: 25 µg/mL
Inhibition of S. aureus growth, spot-on-lawn [14]: inhibition observed on an agar surface

fragment found [11]: TVGGLVKWILD; also recorded: TVKKFA
cleaved bond [12]: Asp11-T12
Compound: TVGGLVKWILDTVKKFA
